Consider eight molecules from patent publication US20200247800A1, “SUBSTITUTED BICYCLIC HETEROCYCLIC COMPOUNDS AS NADPH OXIDASE INHIBITORS” (Glenmark Pharmaceuticals S.A., priority 2017, published 2020).

Counter-ions that a name gives are not always drawn. Where only a bound is given, the exact number is not on record here.

This test deals with T1, human NOX4 (Homo sapiens, UniProt Q9NPH5).
T1 construct: expressed in transfected cells; membrane fraction used
T1 sequence (Q9NPH5 1-578): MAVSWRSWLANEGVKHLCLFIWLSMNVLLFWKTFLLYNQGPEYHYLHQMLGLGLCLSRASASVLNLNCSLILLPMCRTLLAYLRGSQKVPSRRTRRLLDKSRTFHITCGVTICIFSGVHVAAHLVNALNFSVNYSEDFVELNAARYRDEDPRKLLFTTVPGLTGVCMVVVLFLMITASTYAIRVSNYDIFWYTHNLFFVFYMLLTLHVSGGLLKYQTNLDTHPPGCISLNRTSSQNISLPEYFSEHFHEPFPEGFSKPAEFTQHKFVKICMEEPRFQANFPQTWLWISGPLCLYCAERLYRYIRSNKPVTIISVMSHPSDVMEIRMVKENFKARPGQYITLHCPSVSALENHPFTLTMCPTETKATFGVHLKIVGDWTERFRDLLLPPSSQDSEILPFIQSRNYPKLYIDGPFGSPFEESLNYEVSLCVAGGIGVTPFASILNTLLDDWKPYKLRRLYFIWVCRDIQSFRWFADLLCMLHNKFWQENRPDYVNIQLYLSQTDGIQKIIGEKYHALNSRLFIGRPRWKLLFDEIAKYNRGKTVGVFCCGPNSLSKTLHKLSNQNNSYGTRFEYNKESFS
T1 sequence (P13498 1-195 partner): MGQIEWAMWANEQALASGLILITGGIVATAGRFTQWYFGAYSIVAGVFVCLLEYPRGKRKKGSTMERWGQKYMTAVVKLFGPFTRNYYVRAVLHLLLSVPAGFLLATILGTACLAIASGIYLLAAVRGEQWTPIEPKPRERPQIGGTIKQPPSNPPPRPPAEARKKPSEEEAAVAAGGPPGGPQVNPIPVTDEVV
Nature of the test: Cell free membrane based in vitro NOX4 assay: H2O2 production by membranes expressing human NOX4, measured with Amplex Red. It is filed as biochemical. The conditions noted are these: for inhibition at 1 µM / Percentage inhibition at 1.0 μM: 1.0 μM compound; for inhibition at 1 µM: read-out: Percentage inhibition at 1.0 μM; for inhibition at 10 µM / Percentage inhibition at 10.0 μM: 10.0 μM compound; for inhibition at 10 µM: read-out: Percentage inhibition at 10.0 μM; for IC50: class symbols. A digest of the protocol:
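Membranes from HEK cells stably overexpressing human NOX4 were preincubated 20 min with inhibitor in pH 7.4 HEPES buffer containing HRP and Amplex Red, then NADPH was added. H2O2 was followed for 10 min by fluorescence (ex 544/em 590 nm). IC50 from nonlinear regression of % maximal uninhibited response.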

For orientation: inhibition means the change of the read-out against control, counted positive when it falls. In the case of `COc1c(-c2ccccc2Cl)[nH]c2c(c(C)nn2C)c1=O` [Example 233, 6-(2-chlorophenyl)-5-methoxy-1,3-dimethyl-1H-pyrazolo[3,4-b]pyridin-4(7H)-one], the inhibition at 1 µM turned out to be 32.8% and the inhibition at 10 µM stood at 69.7%.

Turning to `CCn1nc(C)c2c(=O)c(OC)c(-c3c(F)cccc3F)[nH]c21` [Example 234], the inhibition at 1 µM turned out to be 25.8% and the inhibition at 10 µM worked out at 70.2%.

The IC50 is the midpoint of a concentration-inhibition curve. For the molecule `CCn1nc(C)c2c(=O)c(O)c(-c3ccc(NS(C)(=O)=O)cc3F)[nH]c21` [Example 235, N-[4-(1-ethyl-5-hydroxy-3-methyl-4-oxo-4,7-dihydro-1H-pyrazolo[3,4-b]pyridin-6-yl)-3-fluorophenyl]methanesulfonamide], the inhibition at 1 µM stood at 72.9% and the IC50 was above 150 nM.

Turning to `CCn1nc(C)c2c(=O)c(O)c(-c3c(F)cc(NS(C)(=O)=O)cc3F)[nH]c21` [Example 236, N-[4-(1-Ethyl-5-hydroxy-3-methyl-4-oxo-4,7-dihydro-1H-pyrazolo[3,4-b]pyridin-6-yl)-3,5-difluorophenyl]methanesulfonamide], the inhibition at 1 µM amounted to 84.8%, the inhibition at 10 µM came out at 87.7% and the IC50 was in the range of 50 to 100 nM.

As for `Cn1nc(C(F)(F)F)c2c(=O)c(O)c(-c3ccc(NS(C)(=O)=O)cc3F)[nH]c21` [Example 237, N-{3-Fluoro-4-[5-hydroxy-1-methyl-4-oxo-3-(trifluoromethyl)-4,7-dihydro-1H-pyrazolo[3,4-b]pyridin-6-yl]phenyl}methanesulfonamide], the inhibition at 1 µM was 60.9%, the inhibition at 10 µM amounted to 74.3% and the IC50 is above 150 nM.

As for `CCc1nn(CCN2CCOCC2)c2[nH]c(-c3ccccc3Cl)c(O)c(=O)c12` [Example 238, 6-(2-Chlorophenyl)-3-ethyl-5-hydroxy-1-(2-morpholinoethyl)-1H-pyrazolo[3,4-b]pyridin-4(7H)-one hydrochloride], the IC50 is above 150 nM. In addition, where the note is “hydrochloride”, the “Percentage inhibition at 1.0 μM” value came out at 80.17% and the “Percentage inhibition at 10.0 μM” value was found to be 71.20%.

With `Cc1nn(CCN2CCOCC2)c2[nH]c(-c3cccc(C(F)(F)F)c3F)c(O)c(=O)c12` [Example 239, 6-(2-Fluoro-3-(trifluoromethyl)phenyl)-5-hydroxy-3-methyl-1-(2-morpholinoethyl)-1H-pyrazolo[3,4-b]pyridin-4(7H)-one dihydrochloride], for the setting “dihydrochloride”, the “Percentage inhibition at 1.0 μM” value is recorded as 84.59% and the “Percentage inhibition at 10.0 μM” value is 77.77%.

Regarding `Cc1nn(CCN2CCN(C)CC2)c2[nH]c(-c3ccccc3Cl)c(O)c(=O)c12` [Example 243, 6-(2-Chlorophenyl)-5-hydroxy-3-methyl-1-(2-(4-methylpiperazin-1-yl)ethyl)-1H-pyrazolo[3,4-b]pyridin-4(7H)-one fumarate], the concentration for half-maximal inhibition (IC50) was above 150 nM.
